Measurements reported in paper PMC9851907, “A single 2′-O-methylation of ribosomal RNA gates assembly of a functional ribosome” (Nature Structural & Molecular Biology, 2022).

Biological target: T1, Nog2 (Nog2-3xFLAG) (Saccharomyces cerevisiae, UniProt P53742)
T1 construct: full-length, genomic C-terminal 3xFLAG-6xHis tag (kept); native anti-FLAG purification from yeast within pre-60S particle with unmodified G2922 (spb1-D52A cells)
Test: cryo-EM structure, […] A
Type: binding
Settings: Mg2+; GTPase active site; nucleotide co-purified; pre-60S with unmethylated G2922; Table 1 lists only Mg2+ as ligand

Compound: Nc1nc2c(ncn2[C@@H]2O[C@H](COP(=O)(O)OP(=O)(O)O)[C@@H](O)[C@H]2O)c(=O)[nH]1 [GDP]
- cryo-EM structure, 2.9 A: switch I and switch II (motifs G2 and G3) are apparently ordered around GDP
